Patent US20240199587A1, “HETEROCYCLIC COMPOUNDS” (Hoffmann-La Roche Inc., priority 2021, published 2024)

biological target: T1, MAGL (Homo sapiens, UniProt Q99685); experiment: 2-AG assay (MAGL inhibitory activity, hydrolysis of 2-arachidonoylglycerol to arachidonic acid followed by mass spectrometry); type: biochemical; settings: 8 μM 2-arachidonoylglycerol, 15 min pre-incubation, 30 min incubation at RT, RapidFire MS readout
T1 sequence (Q99685 1-303): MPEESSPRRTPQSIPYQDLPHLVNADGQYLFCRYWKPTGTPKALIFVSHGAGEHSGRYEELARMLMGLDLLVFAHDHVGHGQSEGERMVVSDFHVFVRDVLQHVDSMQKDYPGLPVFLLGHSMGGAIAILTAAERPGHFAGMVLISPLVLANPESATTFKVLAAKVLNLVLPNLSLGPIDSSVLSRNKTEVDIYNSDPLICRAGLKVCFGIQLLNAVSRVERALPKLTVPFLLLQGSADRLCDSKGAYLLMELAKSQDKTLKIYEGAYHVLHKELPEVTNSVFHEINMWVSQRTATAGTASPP
Summary of the method: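 Human MAGL ([…] final) pre-incubated 15 min at RT with compound in 50 mM TRIS, 1 mM EDTA, 0.01% Tween-20, 2.5% DMSO; 8 μM 2-AG then added for 30 min at RT. Acetonitrile quench with d8-arachidonic acid; arachidonic acid measured by RapidFire SPE–MS/MS, activity from arachidonic acid/d8 ratio.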

IC50 [nM]	SMILES
1410	Cc1ccn(C2CC3(C2)CN(C(=O)c2ccc(-c4noc(C(C)(C)C)n4)cc2)C3)n1 [Example 148, [4-(5-tert-butyl-1,2,4-oxadiazol-3-yl)phenyl]-[6-(3-methylpyrazol-1-yl)-2-azaspiro[3.3]heptan-2-yl]methanone]
441	O=C(N1CC2(CC(n3cnc(C4CC4)n3)C2)C1)N1CCC(OCC2(C(F)(F)F)CC2)C2(CC2)C1 (centres unmarked) [Example 149, [6-(3-cyclopropyl-1,2,4-triazol-1-yl)-2-azaspiro13.31heptan-2-yl]−[8-[[1-(trifluoromethyl)cyclopropyl]methoxy]-5-azaspiro[2.5]octan-5-yl]methanone]
162	O=C(N1CC2(CC(n3cnc(C4CC4)n3)C2)C1)N1CCC(OCC2(C(F)(F)F)CC2)C(F)(F)C1 (centres unmarked) [Example 150, [6-(3-cyclopropyl-1,2,4-triazol-1-yl)-2-azaspiro[3.3]heptan-2-yl]-[3,3-difluoro-4-[[1-(trifluoromethyl)cyclopropyl]methoxy]-1-piperidyl]methanone]
67.1	Cc1cc(C(=O)N2CC3(CC(n4ccc(C5CC5)n4)C3)C2)cnc1OCC1(C(F)(F)F)CC1 [Example 151, [6-(3-cyclopropylpyrazol-1-yl)-2-azaspiro[3.3]heptan-2-yl]-[5-methyl-6-[[1-(trifluoromethyl)cyclopropyl]methoxy]-3-pyridyl]methanone]
312	Cc1cc(C(=O)N2CC3(CC(n4ccc(C5CC5)n4)C3)C2)cnc1OC(C)(C)C(F)(F)F [Example 152, [6-(3-cyclopropylpyrazol-1-yl)-2-azaspiro[3.3]heptan-2-yl]-[5-methyl-6-(2,2,2-trifluoro-1,1-dimethyl-ethoxy)-3-pyridyl]methanone]
14.9	O=C(c1cnc(OCC2(C(F)(F)F)CC2)c(C(F)(F)F)c1)N1CC2(CC(n3cnc(C4CC4)n3)C2)C1 [Example 153, [6-(3-cyclopropyl-1,2,4-triazol-1-yl)-2-azaspiro[3.3]heptan-2-yl]−[5-(trifluoromethyl)-6-[[1-(trifluoromethyl)cyclopropyl]methoxy]-3-pyridyl]methanone]
10	O=C(c1cnc(OCC2(C(F)(F)F)CC2)c(C2COC2)c1)N1CC2(CC(n3cnc(C4CC4)n3)C2)C1 [Example 154, [6-(3-cyclopropyl-1,2,4-triazol-1-yl)-2-azaspiro[3.3]heptan-2-yl]−[5-(oxetan-3-yl)-6-[[1-(trifluoromethyl)cyclopropyl]methoxy]-3-pyridyl]methanone]
20.8	O=C(N1CC2(CC(n3cnc(C4CC4)n3)C2)C1)C12CCC(COCC3(C(F)(F)F)CC3)(CC1)CC2 [Example 155, [6-(3-cyclopropyl-1,2,4-triazol-1-yl)-2-azaspiro[3.3]heptan-2-yl]−[4-[[1-(trifluoromethyl)cyclopropyl]methoxymethyl]-1-bicyclo[2.2.2]octanyl]methanone]
33.9	CCc1ncn(C2CC3(C2)CN(C(=O)c2ccc(-c4noc(C(C)(C)C)n4)cc2)C3)n1 [Example 156, [4-(5-tert-butyl-1,2,4-oxadiazol-3-yl)phenyl]−[6-(3-ethyl-1,2,4-triazol-1-yl)-2-azaspiro[3.3]heptan-2-yl]methanone]

Further lines, the compound ahead of its results:

SMILES	IC50 [nM]
COc1cc(O[C@H]2C[C@@H]3CN(C(=O)N4CC5(CC(n6cnc(C7CC7)n6)C5)C4)C[C@@H]3C2)ccc1F [Example 131, [6-(3-cyclopropyl-1,2,4-triazol-1-yl)-2-azaspiro[3.3]heptan-2-yl]-[rac-(3aS,6aR)-5-(4-fluoro-3-methoxy-phenoxy)-3,3a,4,5,6,6a-hexahydro-1H-cyclopenta[c]pyrrol-2-yl]methanone]	5.9
O=C(N1C[C@H]2C[C@H](Oc3cc(C(F)(F)F)c(F)cc3F)C[C@H]2C1)N1CC2(CC(n3cnc(C4CC4)n3)C2)C1 [Example 132, [6-(3-cyclopropyl-1,2,4-triazol-1-yl)-2-azaspiro[3.3]heptan-2-yl]-[rac-(3aS,6aR)-5-[2,4-difluoro-5-(trifluoromethyl)phenoxy]-3,3a,4,5,6,6a-hexahydro-1H-cyclopenta[c]pyrrol-2-yl]methanone]	1.7
O=C(N1C[C@H]2C[C@H](Oc3ccc(F)c(OC(F)(F)F)c3)C[C@H]2C1)N1CC2(CC(n3cnc(C4CC4)n3)C2)C1 [Example 133, [6-(3-cyclopropyl-1,2,4-triazol-1-yl)-2-azaspiro[3.3]heptan-2-yl]-[rac-(3aS,6aR)-5-[4-fluoro-3-(trifluoromethoxy)phenoxy]-3,3a,4,5,6,6a-hexahydro-1H-cyclopenta[c]pyrrol-2-yl]methanone]	1.3
O=C(N1C[C@H]2C[C@H](Oc3ccc(OC(F)(F)F)cc3)C[C@H]2C1)N1CC2(CC(n3cnc(C4CC4)n3)C2)C1 [Example 134, [6-(3-cyclopropyl-1,2,4-triazol-1-yl)-2-azaspiro[3.3]heptan-2-yl]-[rac-(3aS,6aR)-5-[4-(trifluoromethoxy)phenoxy]-3,3a,4,5,6,6a-hexahydro-1H-cyclopenta[c]pyrrol-2-yl]methanone]	4.3
O=C(N1C[C@H]2C[C@H](Oc3ccc(OC(F)(F)F)c(F)c3)C[C@H]2C1)N1CC2(CC(n3cnc(C4CC4)n3)C2)C1 [Example 135, [6-(3-cyclopropyl-1,2,4-triazol-1-yl)-2-azaspiro[3.3]heptan-2-yl]-[rac-(3aS,6aR)-5-[3-fluoro-4-(trifluoromethoxy)phenoxy]-3,3a,4,5,6,6a-hexahydro-1H-cyclopenta[c]pyrrol-2-yl]methanone]	3.1
O=C(N1CC(OCc2cncc(C(F)(F)F)c2)C1)N1CC2(CC(n3cnc(C4CC4)n3)C2)C1 [Example 136, [6-(3-cyclopropyl-1,2,4-triazol-1-yl)-2-azaspiro[3.3]heptan-2-yl]-[3-[[5-(trifluoromethyl)-3-pyridyl]methoxy]azetidin-1-yl]methanone]	14
O=C(N1CC2(CC(OCC3(C(F)(F)F)CC3)C2)C1)N1CC2(CC(n3cnc(C4CC4)n3)C2)C1 [Example 137, [6-(3-cyclopropyl-1,2,4-triazol-1-yl)-2-azaspiro[3.3]heptan-2-yl]-[6-[[1-(trifluoromethyl)cyclo-propyl]methoxy]-2-azaspiro[3.3]heptan-2-yl]methanone]	4.5
CC1C(OCc2ccc(C(F)(F)F)cc2)CN1C(=O)N1CC2(CC(n3cnc(C4CC4)n3)C2)C1 (centres unmarked) [Example 138, [6-(3-cyclopropyl-1,2,4-triazol-1-yl)-2-azaspiro[3.3]heptan-2-yl]-[2-methyl-3-[[4-(trifluoromethyl)phenyl]methoxy]azetidin-1-yl]methanone]	0.8
O=C(N1CC(C#Cc2ccccc2C(F)F)C1)N1CC2(CC(n3cnc(C4CC4)c3)C2)C1 [Example 139, [6-(4-cyclopropylimidazol-1-yl)-2-azaspiro[3.3]heptan-2-yl]−[3-[2-[2-(difluoromethyl)phenyl]ethynyl]azetidin-1-yl]methanone]	11.5
O=C(N1CC(c2noc(C3(C(F)(F)F)CC3)n2)C1)N1CC2(CC(n3cnc(C4CC4)n3)C2)C1 [Example 140, [6-(3-cyclopropyl-1,2,4-triazol-1-yl)-2-azaspiro[3.3]heptan-2-yl]-[3-[5-[1-(trifluoromethyl)cyclo-propyl]-1,2,4-oxadiazol-3-yl]azetidin-1-yl]methanone]	61.7
O=C(N1CC(c2noc(C3(C(F)(F)F)CC3)n2)C1)N1CC2(CC(n3cnc(C4CC4)c3)C2)C1 [Example 141]	332
Cc1cc(C(=O)N2CC3(CC(n4cnc(C5CC5)c4)C3)C2)cnc1OCC1(C)CC1 [Example 142, [6-(4-cyclopropylimidazol-1-yl)-2-azaspiro[3.3]heptan-2-yl]−[5-methyl-6-[(1-methylcyclopropyl)methoxy]-3-pyridyl]methanone]	31.3
Cc1cc(C(=O)N2CC3(CC(n4cnc(C5CC5)n4)C3)C2)cnc1OCC1(C)CC1 [Example 143, [6-(3-cyclopropyl-1,2,4-triazol-1-yl)-2-azaspiro[3.3]heptan-2-yl]-[5-methyl-6-[(1-methylcyclopropyl)methoxy]-3-pyridyl]methanone]	53.2
O=C(N1CC(n2cc(OCC(F)(F)F)cn2)C1)N1CC2(CC(n3cnc(C4CC4)c3)C2)C1 [Example 144, [6-(4-cyclopropylimidazol-1-yl)-2-azaspiro[3.3]heptan-2-yl]-[3-[4-(2,2,2-trifluoroethoxy)pyrazol-1-yl]azetidin-1-yl]methanone]	602
O=C(N1CC(c2nnc(C3(C(F)(F)F)CC3)o2)C1)N1CC2(CC(n3cnc(C4CC4)n3)C2)C1 [Example 145, [6-(3-cyclopropyl-1,2,4-triazol-1-yl)-2-azaspiro[3.3]heptan-2-yl]-[3-[5-[1-(trifluoromethyl)cyclo-propyl]-1,3,4-oxadiazol-2-yl]azetidin-1-yl]methanone]	541
Cc1cnn(C2CC3(C2)CN(C(=O)c2ccc(-c4noc(C(C)(C)C)n4)cc2)C3)c1 [Example 146, [4-(5-tert-butyl-1,2,4-oxadiazol-3-yl)phenyl]−[6-(4-methylpyrazol-1-yl)-2-azaspiro[3.3]heptan-2-yl]methanone]	400
Cc1cnn(C2CC3(C2)CN(C(=O)c2cnc(OCC4(C(F)(F)F)CC4)c(C)c2)C3)c1 [Example 147, [6-(4-methylpyrazol-1-yl)-2-azaspiro[3.3]heptan-2-yl]-[5-methyl-6-[[1-(trifluoromethyl)cyclopropyl]methoxy]-3-pyridyl]methanone]	340
